Reference: patent US11596641B2, “Methods and compositions for treating meibomian gland dysfunction” (priority 2020, dated 2023)
Structures can show the parent of a compound that is named as a salt. Where two headings read alike, the source gives them in different places.

Assay: pKa values
Assay type: physicochemical

pKa value (third printed) (third of three pKa values, hydrochloride)	pKa (first of three pKa values, read-out: pKa value (first given))	pKa (second of three pKa values, read-out: pKa value)	pKa (third of three pKa values, read-out: pKa value (third printed))	Structure (SMILES)
9.3				CN(C)c1ccc(O)c2c1C[C@H]1C[C@H]3[C@H](N(C)C)C(O)=C(C(N)=O)C(=O)[C@@]3(O)C(O)=C1C2=O [minocycline hydrochloride]
	3.5	7.6	9.2	CN(C)c1ccc(O)c2c1C[C@H]1C[C@H]3[C@H](N(C)C)C(O)=C(C(N)=O)C(=O)[C@@]3(O)C(O)=C1C2=O [minocycline]
